The structures appear in SMILES notation.

The test system of this assay is TPM3-NTRK1-wt IC50 / primary target (e.g. CD74-ROS1-wt) IC50, Ba/F3 cells. As to the kind of experiment: Cell assay TRKA selectivity (TRKA potency divided by primary target potency). The settings on record: for TPM3-NTRK1-wt/CD74-ROS1-G2032R: TRKA selectivity ratio: TPM3-NTRK1-wt IC50 / CD74-ROS1-G2032R IC50, Ba/F3 cells; for TPM3-NTRK1-wt/CD74-ROS1-wt: TRKA selectivity ratio: TPM3-NTRK1-wt IC50 / CD74-ROS1-wt IC50, Ba/F3 cells; for TPM3-NTRK1-wt/EML4-ALK-L1196M-G1202R: TRKA selectivity ratio: TPM3-NTRK1-wt IC50 / EML4-ALK-L1196M-G1202R IC50, Ba/F3 cells; for TPM3-NTRK1-wt/EML4-ALK-wt: TRKA selectivity ratio: TPM3-NTRK1-wt IC50 / EML4-ALK-wt IC50, Ba/F3 cells. In kind it is cell-based. The method in brief: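 Ratio of TRKA to primary-target cellular IC50 (e.g. TPM3-NTRK1-wt/CD74-ROS1-wt), grouped into bins A >30, B >10, C ≥1, D <1. Each IC50 came from engineered Ba/F3 fusion lines grown without IL-3, dosed for 72 h and read as CellTiter-Glo luminescence, with a four-parameter logistic fit.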

As to `CC1Oc2cc(cnc2N)-c2c(cnn2C(F)F)Cn2ccnc2-c2ccc(F)cc21` (stereo not shown) [Example 44, 3-(difluoromethyl)-16-fluoro-19-methyl-20-oxa-3,4,8,11,23-pentaazapentacyclo[19.3.1.0^2,^6.0^8,^12.0^13,^18]pentacosa-1(24),2(6),4,9,11,13,15,17,21(25),22-decaen-22-amine], the TPM3-NTRK1-wt/CD74-ROS1-G2032R entry was “A (bin A for very high selectivity, ratio>30-fold)”; the TPM3-NTRK1-wt/CD74-ROS1-wt result was “A (bin A for very high selectivity, ratio>30-fold)”; the TPM3-NTRK1-wt/EML4-ALK-L1196M-G1202R entry is “C (bin C for moderate selectivity, ratio≥1)”; the TPM3-NTRK1-wt/EML4-ALK-wt entry was “A (bin A for very high selectivity, ratio>30-fold)”.

For `CCn1ncc2c1-c1cnc(N)c(c1)O[C@H](C)c1cc(F)ccc1-c1nc(C)cn1C2` [Example 45, (19R)-3-ethyl-16-fluoro-10,19-dimethyl-20-oxa-3,4,8,11,23-pentaazapentacyclo[19.3.1.0^2,^6.0^8,^12.0^13,^18]pentacosa-1(24),2(6),4,9,11,13,15,17,21(25),22-decaen-22-amine], the TPM3-NTRK1-wt/CD74-ROS1-G2032R entry was “A (bin A for very high selectivity, ratio>30-fold)”; the TPM3-NTRK1-wt/CD74-ROS1-wt result is on record as “A (bin A for very high selectivity, ratio>30-fold)”; the TPM3-NTRK1-wt/EML4-ALK-L1196M-G1202R result is “B (bin B for high selectivity, ratio>10-fold)”; the TPM3-NTRK1-wt/EML4-ALK-wt entry is “A (bin A for very high selectivity, ratio>30-fold)”.

As to `CCn1ncc2c1-c1cnc(N)c(c1)O[C@H](C)c1cc(F)ccc1-n1ncc(F)c1C2` [Example 46, (19R)-3-ethyl-9,16-difluoro-19-methyl-20-oxa-3,4,11,12,23-pentaazapentacyclo[19.3.1.0^2,^6.0^8,^12.0^13,^18]pentacosa-1(24),2(6),4,8,10,13,15,17,21(25),22-decaen-22-amine], the TPM3-NTRK1-wt/CD74-ROS1-G2032R result is reported as “A (bin A for very high selectivity, ratio>30-fold)”; the TPM3-NTRK1-wt/CD74-ROS1-wt result is “A (bin A for very high selectivity, ratio>30-fold)”; the TPM3-NTRK1-wt/EML4-ALK-L1196M-G1202R entry is given as “C (bin C for moderate selectivity, ratio≥1)”; the TPM3-NTRK1-wt/EML4-ALK-wt result was “A (bin A for very high selectivity, ratio>30-fold)”.

As for `CCn1ncc2c1-c1cnc(N)c(c1)O[C@H](C)c1cc(F)ccc1-n1ncc(C#N)c1C2` [Example 47, (19R)-22-amino-3-ethyl-16-fluoro-19-methyl-20-oxa-3,4,11,12,23-pentaazapentacyclo[19.3.1.0^2,^6.0^8,^12.0^13,^18]pentacosa-1(24),2(6),4,8,10,13,15,17,21(25),22-decaene-9-carbonitrile], the TPM3-NTRK1-wt/CD74-ROS1-G2032R result is “A (bin A for very high selectivity, ratio>30-fold)”; the TPM3-NTRK1-wt/CD74-ROS1-wt result is reported as “A (bin A for very high selectivity, ratio>30-fold)”; the TPM3-NTRK1-wt/EML4-ALK-L1196M-G1202R entry was “C (bin C for moderate selectivity, ratio≥1)”; the TPM3-NTRK1-wt/EML4-ALK-wt entry is “B (bin B for high selectivity, ratio>10-fold)”.

Take `CCn1ncc2c1-c1cnc(N)c(c1)OCc1cc(F)ccc1-n1ncc(F)c1C2` [Example 48, 3-ethyl-9,16-difluoro-20-oxa-3,4,11,12,23-pentaazapentacyclo[19.3.1.0^2,^6.0^8,^12.0^13,^18]pentacosa-1(24),2(6),4,8,10,13,15,17,21(25),22-decaen-22-amine]: the TPM3-NTRK1-wt/CD74-ROS1-G2032R entry is listed as “A (bin A for very high selectivity, ratio>30-fold)”; the TPM3-NTRK1-wt/CD74-ROS1-wt entry is on record as “A (bin A for very high selectivity, ratio>30-fold)”; the TPM3-NTRK1-wt/EML4-ALK-L1196M-G1202R result is given as “B (bin B for high selectivity, ratio>10-fold)”; the TPM3-NTRK1-wt/EML4-ALK-wt result was “A (bin A for very high selectivity, ratio>30-fold)”.

For `CCn1ncc2c1-c1cnc(N)c(c1)OCc1cc(F)ccc1-c1nn(C)cc1C2` [Example 49, 3-ethyl-16-fluoro-10-methyl-20-oxa-3,4,10,11,23-pentaazapentacyclo[19.3.1.0^2,^6.0^8,^12.0^13,^18]pentacosa-1(24),2(6),4,8,11,13,15,17,21(25),22-decaen-22-amine], the TPM3-NTRK1-wt/CD74-ROS1-G2032R result is on record as “A (bin A for very high selectivity, ratio>30-fold)”; the TPM3-NTRK1-wt/CD74-ROS1-wt result was “A (bin A for very high selectivity, ratio>30-fold)”; the TPM3-NTRK1-wt/EML4-ALK-L1196M-G1202R result is recorded as “B (bin B for high selectivity, ratio>10-fold)”; the TPM3-NTRK1-wt/EML4-ALK-wt entry is reported as “A (bin A for very high selectivity, ratio>30-fold)”.

With `CCc1ncn2c1-c1cnc(N)c(c1)O[C@H](C)c1cc(F)ccc1-c1nn(C)cc1C2` [Example 50, (19R)-3-ethyl-16-fluoro-10,19-dimethyl-20-oxa-4,6,10,11,23-pentaazapentacyclo[19.3.1.0^2,^6.0^8,^12.0^13,^18]pentacosa-1(24),2,4,8,11,13,15,17,21(25),22-decaen-22-amine], the TPM3-NTRK1-wt/CD74-ROS1-G2032R result is reported as “A (bin A for very high selectivity, ratio>30-fold)”; the TPM3-NTRK1-wt/CD74-ROS1-wt result is on record as “A (bin A for very high selectivity, ratio>30-fold)”; the TPM3-NTRK1-wt/EML4-ALK-L1196M-G1202R entry is given as “B (bin B for high selectivity, ratio>10-fold)”; the TPM3-NTRK1-wt/EML4-ALK-wt entry is reported as “A (bin A for very high selectivity, ratio>30-fold)”.

With `CCn1ncc2c1-c1cnc(N)c(c1)O[C@H](C)c1cc(F)ccc1-n1nc(C#N)cc1C2` [Example 51, (19R)-22-amino-3-ethyl-16-fluoro-19-methyl-20-oxa-3,4,11,12,23-pentaazapentacyclo[19.3.1.0^2,^6.0^8,^12.0^13,^18]pentacosa-1(24),2(6),4,8,10,13,15,17,21(25),22-decaene-10-carbonitrile], the TPM3-NTRK1-wt/CD74-ROS1-G2032R result is on record as “C (bin C for moderate selectivity, ratio≥1)”; the TPM3-NTRK1-wt/CD74-ROS1-wt entry is “C (bin C for moderate selectivity, ratio≥1)”; the TPM3-NTRK1-wt/EML4-ALK-L1196M-G1202R result was “C (bin C for moderate selectivity, ratio≥1)”; the TPM3-NTRK1-wt/EML4-ALK-wt result is on record as “D (bin D for low selectivity, ratio<1)”.

On to `CCn1ncc2c1-c1cnc(N)c(c1)O[C@H](C)c1cc(F)ccc1-n1nc(C(F)(F)F)cc1C2` [Example 52, (19R)-3-ethyl-16-fluoro-19-methyl-10-(trifluoromethyl)-20-oxa-3,4,11,12,23-pentaazapentacyclo[19.3.1.0^2,^6.0^8,^12.0^13,^18]pentacosa-1(24),2(6),4,8,10,13,15,17,21(25),22-decaen-22-amine], for which the TPM3-NTRK1-wt/CD74-ROS1-G2032R result is reported as “A (bin A for very high selectivity, ratio>30-fold)”; the TPM3-NTRK1-wt/CD74-ROS1-wt result was “A (bin A for very high selectivity, ratio>30-fold)”; the TPM3-NTRK1-wt/EML4-ALK-L1196M-G1202R entry is “C (bin C for moderate selectivity, ratio≥1)”; the TPM3-NTRK1-wt/EML4-ALK-wt result was “B (bin B for high selectivity, ratio>10-fold)”.

In the case of `Cc1nn(CC2CC2)c2c1Cc1cn(C)nc1-c1ccc(F)cc1[C@@H](C)Oc1cc-2cnc1N` [Example 53, (19R)-3-(cyclopropylmethyl)-16-fluoro-5,10,19-trimethyl-20-oxa-3,4,10,11,23-pentaazapentacyclo[19.3.1.0^2,^6.0^8,^12.0^13,^18]pentacosa-1(24),2(6),4,8,11,13,15,17,21(25),22-decaen-22-amine], the TPM3-NTRK1-wt/CD74-ROS1-G2032R entry is given as “A (bin A for very high selectivity, ratio>30-fold)”; the TPM3-NTRK1-wt/CD74-ROS1-wt result is recorded as “A (bin A for very high selectivity, ratio>30-fold)”; the TPM3-NTRK1-wt/EML4-ALK-L1196M-G1202R entry is reported as “A (bin A for very high selectivity, ratio>30-fold)”; the TPM3-NTRK1-wt/EML4-ALK-wt entry was “A (bin A for very high selectivity, ratio>30-fold)”.

As to `Cc1nn(CC2CC2)c2c1Cc1c(nn(C)c1Cl)-c1ccc(F)cc1[C@@H](C)Oc1cc-2cnc1N` [Example 54, (19R)-9-chloro-3-(cyclopropylmethyl)-16-fluoro-5,10,19-trimethyl-20-oxa-3,4,10,11,23-pentaazapentacyclo[19.3.1.0^2,^6.0^8,^12.0^13,^18]pentacosa-1(24),2(6),4,8,11,13,15,17,21(25),22-decaen-22-amine], the TPM3-NTRK1-wt/CD74-ROS1-G2032R result is “A (bin A for very high selectivity, ratio>30-fold)”; the TPM3-NTRK1-wt/CD74-ROS1-wt entry is on record as “A (bin A for very high selectivity, ratio>30-fold)”; the TPM3-NTRK1-wt/EML4-ALK-L1196M-G1202R result is reported as “B (bin B for high selectivity, ratio>10-fold)”; the TPM3-NTRK1-wt/EML4-ALK-wt entry is “A (bin A for very high selectivity, ratio>30-fold)”.

As to `CCc1nn(C)c2c1-c1cnc(N)c(c1)OCc1cc(F)ccc1-n1nc(C)cc1C2` [Example 55, 3-ethyl-16-fluoro-5,10-dimethyl-20-oxa-4,5,11,12,23-pentaazapentacyclo[19.3.1.0^2,^6.0^8,^12.0^13,^18]pentacosa-1(24),2(6),3,8,10,13,15,17,21(25),22-decaen-22-amine], the TPM3-NTRK1-wt/CD74-ROS1-G2032R entry was “A (bin A for very high selectivity, ratio>30-fold)”; the TPM3-NTRK1-wt/CD74-ROS1-wt result is given as “A (bin A for very high selectivity, ratio>30-fold)”; the TPM3-NTRK1-wt/EML4-ALK-L1196M-G1202R entry is “C (bin C for moderate selectivity, ratio≥1)”; the TPM3-NTRK1-wt/EML4-ALK-wt result is listed as “A (bin A for very high selectivity, ratio>30-fold)”.

Consider `Cc1cn2c(n1)-c1ccc(F)cc1[C@@H](C)Oc1cc(cnc1N)-c1c(c(C)nn1CC1CC1)C2` [Example 56, (19R)-3-(cyclopropylmethyl)-16-fluoro-5,10,19-trimethyl-20-oxa-3,4,8,11,23-pentaazapentacyclo[19.3.1.0^2,^6.0^8,^12.0^13,^18]pentacosa-1(24),2(6),4,9,11,13,15,17,21(25),22-decaen-22-amine], for which the TPM3-NTRK1-wt/CD74-ROS1-G2032R result is reported as “D (bin D for low selectivity, ratio<1)”; the TPM3-NTRK1-wt/CD74-ROS1-wt result is reported as “D (bin D for low selectivity, ratio<1)”; the TPM3-NTRK1-wt/EML4-ALK-L1196M-G1202R result was “D (bin D for low selectivity, ratio<1)”; the TPM3-NTRK1-wt/EML4-ALK-wt entry is given as “D (bin D for low selectivity, ratio<1)”.

Source of the values: patent publication US11667649B2, “Heteroaromatic macrocyclic ether chemotherapeutic agents” (Nuvalent, Inc., priority 2020, dated 2023).
